Reference: publication PMC7504770, “Mechanistic Insights into the Chaperoning of Human Lysosomal-Galactosidase Activity: Highly Functionalized Aminocyclopentanes and C-5a-Substituted Derivatives of 4-epi-Isofagomine” (Molecules, 2020)

What was measured:
[1] = biological target: T1, β-galactosidase from bovine liver (GH35) (Bos taurus, UniProt Q58D55); conditions: read-out: Ki Bovine liver (β-Gal) (GH35); cited from earlier work
T1 construct: Bovine liver β-galactosidase; from tissue; host or cells: bovine liver
T1 sequence (Q58D55 28-653): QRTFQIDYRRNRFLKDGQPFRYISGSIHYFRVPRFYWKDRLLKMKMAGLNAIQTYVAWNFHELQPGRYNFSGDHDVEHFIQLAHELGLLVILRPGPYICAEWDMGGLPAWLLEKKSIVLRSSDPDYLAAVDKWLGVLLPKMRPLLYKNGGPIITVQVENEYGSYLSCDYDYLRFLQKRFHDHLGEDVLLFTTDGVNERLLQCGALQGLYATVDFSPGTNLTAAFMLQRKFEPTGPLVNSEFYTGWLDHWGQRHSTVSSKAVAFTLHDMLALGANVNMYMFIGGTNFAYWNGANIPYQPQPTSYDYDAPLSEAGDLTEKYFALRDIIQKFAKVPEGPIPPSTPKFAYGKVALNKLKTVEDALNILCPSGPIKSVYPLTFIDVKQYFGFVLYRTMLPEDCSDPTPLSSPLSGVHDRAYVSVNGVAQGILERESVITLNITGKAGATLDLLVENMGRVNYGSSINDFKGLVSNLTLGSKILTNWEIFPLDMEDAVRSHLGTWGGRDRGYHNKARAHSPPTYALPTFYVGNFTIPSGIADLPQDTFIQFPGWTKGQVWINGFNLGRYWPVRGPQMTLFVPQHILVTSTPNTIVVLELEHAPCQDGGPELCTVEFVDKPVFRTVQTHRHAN

[2] = biological target: T2, human lysosomal acid β-galactosidase (GH35) (Homo sapiens, UniProt P16278); conditions: read-out: β-Gal human lys. (GH35); cited from earlier work
T2 construct: Activity was measured in normal fibroblasts; endogenous in cells; host or cells: normal human skin fibroblasts (homogenate)
T2 sequence (P16278 29-677): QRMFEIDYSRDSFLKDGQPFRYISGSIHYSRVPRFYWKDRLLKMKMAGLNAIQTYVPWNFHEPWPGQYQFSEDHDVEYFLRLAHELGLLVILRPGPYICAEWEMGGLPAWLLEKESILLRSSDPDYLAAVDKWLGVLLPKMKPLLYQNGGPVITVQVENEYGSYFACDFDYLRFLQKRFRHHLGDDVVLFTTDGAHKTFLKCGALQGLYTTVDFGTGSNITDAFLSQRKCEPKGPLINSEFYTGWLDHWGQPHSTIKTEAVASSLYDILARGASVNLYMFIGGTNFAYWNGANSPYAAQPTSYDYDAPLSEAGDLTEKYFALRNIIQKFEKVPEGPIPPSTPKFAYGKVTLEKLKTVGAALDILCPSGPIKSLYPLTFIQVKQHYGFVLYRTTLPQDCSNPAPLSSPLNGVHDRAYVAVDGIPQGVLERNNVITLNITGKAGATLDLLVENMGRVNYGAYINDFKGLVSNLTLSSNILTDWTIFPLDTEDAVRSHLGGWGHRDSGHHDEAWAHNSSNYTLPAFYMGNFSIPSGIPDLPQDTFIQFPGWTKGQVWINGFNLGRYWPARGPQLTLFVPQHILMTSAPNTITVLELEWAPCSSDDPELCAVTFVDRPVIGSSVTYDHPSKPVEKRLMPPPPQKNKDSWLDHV

[3] = biological target: T3, recombinant human lysosomal β-glucocerebrosidase (GCase, GH30) (Homo sapiens, UniProt P04062); conditions: read-out: Ki GCase (β-Glc) (GH30); cited from earlier work
T3 sequence (P04062 40-536): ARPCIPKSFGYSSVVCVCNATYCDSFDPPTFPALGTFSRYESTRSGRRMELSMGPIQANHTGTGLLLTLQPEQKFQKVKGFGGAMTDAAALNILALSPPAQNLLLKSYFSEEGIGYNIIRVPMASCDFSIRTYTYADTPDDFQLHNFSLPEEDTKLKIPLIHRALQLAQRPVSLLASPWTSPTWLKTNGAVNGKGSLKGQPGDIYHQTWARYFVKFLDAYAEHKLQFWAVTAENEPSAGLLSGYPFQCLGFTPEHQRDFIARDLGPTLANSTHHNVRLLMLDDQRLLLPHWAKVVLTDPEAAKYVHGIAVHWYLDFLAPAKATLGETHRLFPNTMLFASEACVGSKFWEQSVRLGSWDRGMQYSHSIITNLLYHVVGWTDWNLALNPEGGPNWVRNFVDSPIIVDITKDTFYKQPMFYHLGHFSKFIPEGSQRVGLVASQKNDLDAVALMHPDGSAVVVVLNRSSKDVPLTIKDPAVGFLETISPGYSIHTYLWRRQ

[4] = biological target: α-glucosidase from S. cerevisiae (GH13); conditions: read-out: Ki S. cer. (α-Glc) (GH13); cited from earlier work
[5] = tested on: human skin fibroblasts (R201C); assay: Cell viability and growth of treated fibroblasts; type: cell-based; conditions: for cell growth at higher concentrations: concentrations higher than 10 µM, over the incubation time; for cell viability at more than 100 µM: concentrations of more than 100 µM; for influence on cell viability: incubation of the cells up to 10 µM
Procedure: Cell lines from one GM1-Gangliosidosis-patient (R201C) and one WT, were exposed to compounds 22, 31, and 37, for evaluation of their chaperone effects.
Human skin fibroblasts were grown in minimal essential medium (MEM) with Earle’s Salts (Sigma Aldrich, St. Louis, MO, USA) containing 10% fetal bovine serum, 400 µM L-glutamine, and 50 µg/mL gentamycin at 37 °C and 5% CO2. All cells used in this study were between the third and nineteenth passages.
Fibroblasts were grown to semi-confluency in 6-well plates. Particular chaperone was added to the culture medium at following concentrations: 100–0.02 µmol. Cells were incubated for four additional days at 37 °C. Cells were harvested by scraping and prepared for β-galactosidase and β-hexosaminidase assays as described above.

## CCCCCCCCNC1C=C(CO)C(O)C(O)C1O (stereo not drawn) [Compound 1, N-octyl-epi-valienamine]
[1]
  Ki: 0.87 µM

## CN(C)c1cccc2c(S(=O)(=O)NCCCCCC[C@@H]3NC[C@@H](O)[C@@H](O)[C@H]3CO)cccc12 [Compound 14]
[2]
  IC50: 0.38 µM
[1]
  Ki: 0.0014 µM
[3]
  Ki: 1.2 µM
[4]
  Ki: > 1000 µM

## CN(C)c1cccc2c(S(=O)(=O)NCCCCCCN[C@H]3[C@H](O)[C@@H](O)[C@@H](O)[C@H]3CO)cccc12 [Compound 17]
[2]
  IC50: 0.4 µM
[3]
  Ki: 0.0193 µM
[4]
  Ki: > 1000 µM

## CN(C)c1cccc2c(S(=O)(=O)NCCCCCCN[C@H]3C[C@@H](O)[C@@H](O)[C@H]3CO)cccc12 [Compound 31, (1R,2S,3R,4S)-3-Hydroxymethyl-4-(6′-dansylaminohexylamino)cyclopentane-1,2-diol]
[5]
  cell growth at higher concentrations: complete arrest of cell growth
  cell viability at more than 100 µM: dramatic loss
  influence on cell viability: no notable influence

## CN(C)c1cccc2c(S(=O)(=O)NCCCCCCN[C@H]3[C@H](F)[C@@H](O)[C@@H](O)[C@H]3CO)cccc12 [Compound 37, (1S,2S,3S,4R,5R)-4-(6′-Dansylaminohexyl)amino-3-fluoro-5-hydroxymethylcyclopentane-1,2-diol]
[5]
  cell growth at higher concentrations: complete arrest of cell growth
  cell viability at more than 100 µM: dramatic loss
  influence on cell viability: no notable influence
